Molecular target: Full length human TBK1 (Homo sapiens (Human), UniProt Q9UHD2)
Assay: Inhibition of TBK1 Enzyme (Example A)
Assay type: biochemical
Details: -log(IC50), IC50 molar; 3 nM TBK1, 25 μM ATP, 60 min RT
Protocol: Full length human TBK1 with an N-terminal His-tag was cloned into the pFastBacl vector and was transfected into Sf9 cells. 72 hours later the virus was harvested and amplified through two additional rounds of infections. Then 400 mL of the resulting virus stock was used to infect 10 L of Sf9 cells at a density of 2×10^6 cells/mL. Cell pellets were harvested 48 hours post infection and were lysed by freeze-thaw, homogenization and sonication in binding buffer (25 mM Tris pH7.6, 1 M NaCl, 10 mM imidazole, 0.5 mM TCEP) plus 0.1% Triton X-100 and complete protease inhibitor cocktail. The lysate was spun and the supernatant was purified with a HisTrap FF crude and a Superdex 200 pg column.
TBK1 inhibition is determined using a 384 well plate format in buffer containing 20 mM Hepes, pH 7.4, 10 mM MgCl2, 1 mM EDTA, 0.01% Brij-L23, 1 mM DTT. Each test compound is prepared in DMSO using 2.5-fold serial dilutions for 11 data points, which are added to the buffer so that each dilution contains 1% DMSO. To each well is added 2 μL of 1 μM 5FAM-DRHDSGLDSMKDE-NH2 (in buffer), 2 μL of diluted test compound (1% DMSO in buffer), and 5 μL of 3 nM TBK1 and 25 μM ATP (in buffer). The reaction mixture is incubated at RT for 60 min, and quenched by adding 20 mM Hepes, pH 7.4, 10 mM MgCl2, 1 mM EDTA, 0.01% Brij-L23, 1 mM DTT+25 mM EDTA. To quantify the fluorescent-labeled substrate and product following reaction, the test plate is loaded on a Caliper LC-3000, which measures percent of conversion by microfluidic-based separation. Corresponding IC50 values are calculated by non-linear curve fitting of the compound concentrations and percent of inhibition to the standard IC50 equation and reported as pIC50, i.e., −log(IC50), where IC50 is the molar concentration.

Sequence of Full length human TBK1 (Q9UHD2 whole entry): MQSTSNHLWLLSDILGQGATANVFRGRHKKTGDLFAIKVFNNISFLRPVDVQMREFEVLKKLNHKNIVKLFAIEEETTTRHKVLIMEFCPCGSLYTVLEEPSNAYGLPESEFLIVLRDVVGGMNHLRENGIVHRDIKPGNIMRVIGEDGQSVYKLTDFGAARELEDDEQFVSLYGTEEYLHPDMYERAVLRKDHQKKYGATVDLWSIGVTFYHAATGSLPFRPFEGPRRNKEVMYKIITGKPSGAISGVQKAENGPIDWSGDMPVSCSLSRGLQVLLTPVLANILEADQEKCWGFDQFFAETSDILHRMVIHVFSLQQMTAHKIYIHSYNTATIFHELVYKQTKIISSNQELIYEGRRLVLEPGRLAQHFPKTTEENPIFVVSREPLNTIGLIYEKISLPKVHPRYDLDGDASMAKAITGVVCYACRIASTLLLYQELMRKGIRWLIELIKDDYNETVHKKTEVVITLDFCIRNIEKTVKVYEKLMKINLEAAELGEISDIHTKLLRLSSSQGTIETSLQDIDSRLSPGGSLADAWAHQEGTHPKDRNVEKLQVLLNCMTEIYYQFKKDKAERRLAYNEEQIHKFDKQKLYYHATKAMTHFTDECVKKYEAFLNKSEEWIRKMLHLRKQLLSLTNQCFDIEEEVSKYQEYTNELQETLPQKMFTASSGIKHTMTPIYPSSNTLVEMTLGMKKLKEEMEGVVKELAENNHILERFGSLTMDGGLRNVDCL

TBK1 Inhibition (pIC50)	Structure (SMILES)
7.1	C[C@@H](Nc1cc(-c2cnc(NC(=O)C3CC3)cn2)ccc1C#N)C(=O)N(C)C [Example 2, (R)-N-(5-(4-cyano-3-((1-(dimethylamino)-1-oxopropan-2-yl)amino)phenyl)pyrazin-2-yl)cyclopropanecarboxamide]
7.9	CC(Nc1cc(-c2cnc(NC(=O)C3CC3)cn2)ccc1C#N)C(=O)N(C)C (centres unmarked) [Example 3, N-(5-(4-cyano-3-((1-(dimethylamino)-1-oxopropan-2-yl)amino)phenyl)pyrazin-2-yl)cyclopropanecarboxamide]
7.1	CC1CC1C(=O)Nc1cnc(-c2ccc(C#N)c(NCC(=O)N(C)C)c2)cn1 (centres unmarked) [Example 4, N-(5-(4-cyano-3-((2-(dimethylamino)-2-oxoethyl)amino)phenyl)pyrazin-2-yl)-2-methylcyclopropanecarboxamide]
7.3	CC(C)C(Nc1cc(-c2cnc(NC(=O)C3CC3)cn2)ccc1C#N)C(=O)N(C)C (centres unmarked) [Example 5, N-(5-(4-cyano-3-((1-(dimethylamino)-3-methyl-1-oxobutan-2-yl)amino)phenyl)pyrazin-2-yl)cyclopropanecarboxamide]
8.1	CCC(Nc1cc(-c2cnc(NC(=O)C3CC3)cn2)ccc1C#N)C(=O)N(C)C (centres unmarked) [Example 6, N-(5-(4-cyano-3-((1-(dimethylamino)-1-oxobutan-2-yl)amino)phenyl)pyrazin-2-yl)cyclopropanecarboxamide]
8.2	COCC[C@H](Nc1cc(-c2cnc(NC(=O)C3CC3)cn2)ccc1C#N)C(=O)N(C)C [Example 7, (S)-N-(5-(4-cyano-3-((1-(dimethylamino)-4-methoxy-1-oxobutan-2-yl)amino)phenyl)pyrazin-2-yl)cyclopropanecarboxamide]
8.1	CN(C)C(=O)C(CC(F)F)Nc1cc(-c2cnc(NC(=O)C3CC3)cn2)ccc1C#N (centres unmarked) [Example 8, N-(5-(4-cyano-3-((1-(dimethylamino)-4,4-difluoro-1-oxobutan-2-yl)amino)phenyl)pyrazin-2-yl)cyclopropanecarboxamide]
6.7	C[C@H](Nc1cc(-c2cnc(NC(=O)C3CC3)cn2)ccc1C#N)C(=O)N1CCC1 [Example 9, (S)-N-(5-(3-((1-(azetidin-1-yl)-1-oxopropan-2-yl)amino)-4-cyanophenyl)pyrazin-2-yl)cyclopropanecarboxamide]
7.3	C[C@H](Nc1cc(-c2cnc(NC(=O)C3CC3)cn2)ccc1C#N)C(=O)N1CCCC1 [Example 10, (S)-N-(5-(4-cyano-3-((1-oxo-1-(pyrrolidin-1-yl)propan-2-yl)amino)phenyl)pyrazin-2-yl)cyclopropanecarboxamide]
6.7	C[C@H](Nc1cc(-c2cnc(NC(=O)C3CC3)cn2)ccc1C#N)C(=O)N1CC(O)C1 [Example 11, (S)-N-(5-(4-cyano-3-((1-(3-hydroxyazetidin-1-yl)-1-oxopropan-2-yl)amino)phenyl)pyrazin-2-yl)cyclopropanecarboxamide]
8.0	CCN(C)C(=O)[C@H](C)Nc1cc(-c2cnc(NC(=O)C3CC3)cn2)ccc1C#N [Example 12, (S)-N-(5-(4-cyano-3-((1-(ethyl(methyl)amino)-1-oxopropan-2-yl)amino)phenyl)pyrazin-2-yl)cyclopropanecarboxamide]
6.3	C[C@H](Nc1cc(-c2cnc(NC(=O)C3CC3)cn2)ccc1C#N)C(=O)NCCO [Example 13, (S)-N-(5-(4-cyano-3-((1-((2-hydroxyethyl)amino)-1-oxopropan-2-yl)amino)phenyl)pyrazin-2-yl)cyclopropanecarboxamide]
6.9	CC(C)NC(=O)[C@H](C)Nc1cc(-c2cnc(NC(=O)C3CC3)cn2)ccc1C#N [Example 14, (S)-N-(5-(4-cyano-3-((1-(isopropylamino)-1-oxopropan-2-yl)amino)phenyl)pyrazin-2-yl)cyclopropanecarboxamide]
5.8	COCCNC(=O)[C@H](C)Nc1cc(-c2cnc(NC(=O)C3CC3)cn2)ccc1C#N [Example 15, (S)-N-(5-(4-cyano-3-((1-((2-methoxyethyl)amino)-1-oxopropan-2-yl)amino)phenyl)pyrazin-2-yl)cyclopropanecarboxamide]
6.3	COC1CN(C(=O)[C@H](C)Nc2cc(-c3cnc(NC(=O)C4CC4)cn3)ccc2C#N)C1 [Example 16, (S)-N-(5-(4-cyano-3-((1-(3-methoxyazetidin-1-yl)-1-oxopropan-2-yl)amino)phenyl)pyrazin-2-yl)cyclopropanecarboxamide]
7.1	COCCN(C)C(=O)[C@H](C)Nc1cc(-c2cnc(NC(=O)C3CC3)cn2)ccc1C#N [Example 17, (S)-N-(5-(4-cyano-3-((1-((2-methoxyethyl)(methyl)amino)-1-oxopropan-2-yl)amino)phenyl)pyrazin-2-yl)cyclopropanecarboxamide]
7.5	CN(C)C(=O)C(CO)Nc1cc(-c2cnc(NC(=O)C3CC3)cn2)ccc1C#N (centres unmarked) [Example 18, N-(5-(4-cyano-3-((1-(dimethylamino)-3-hydroxy-1-oxopropan-2-yl)amino)phenyl)pyrazin-2-yl)cyclopropanecarboxamide]
7.7	C[C@H](Nc1cc(-c2cnc(NC(=O)C3CC3)cn2)ccc1C#N)C(=O)N(C)CCO [Example 19, (S)-N-(5-(4-cyano-3-((1-((2-hydroxyethyl)(methyl)amino)-1-oxopropan-2-yl)amino)phenyl)pyrazin-2-yl)cyclopropanecarboxamide]
7.4	CCN(C)C(=O)CNc1cc(-c2cnc(NC(=O)C3CC3)cn2)ccc1C#N [Example 20, N-(5-(4-cyano-3-((2-(ethyl(methyl)amino)-2-oxoethyl)amino)phenyl)pyrazin-2-yl)cyclopropanecarboxamide]
6.6	N#Cc1ccc(-c2cnc(NC(=O)C3CC3)cn2)cc1NCC(=O)N1CCC1 [Example 21, N-(5-(3-((2-(azetidin-1-yl)-2-oxoethyl)amino)-4-cyanophenyl)pyrazin-2-yl)cyclopropanecarboxamide]
6.0	COC1CN(C(=O)CNc2cc(-c3cnc(NC(=O)C4CC4)cn3)ccc2C#N)C1 [Example 22, N-(5-(4-cyano-3-((2-(3-methoxyazetidin-1-yl)-2-oxoethyl)amino)phenyl)pyrazin-2-yl)cyclopropanecarboxamide]
7.7	CC[C@H](Nc1cc(-c2cnc(NC(=O)C3CC3)cn2)ccc1C#N)C(=O)N(C)C [Example 23, (S)-N-(5-(4-cyano-3-((1-(dimethylamino)-1-oxobutan-2-yl)amino)phenyl)pyrazin-2-yl)cyclopropanecarboxamide]
6.8	N#Cc1ccc(-c2cnc(NC(=O)C3CC3)cn2)cc1NCC(=O)N1CC(F)(F)C1 [Example 24, N-(5-(4-cyano-3-((2-(3,3-difluoroazetidin-1-yl)-2-oxoethyl)amino)phenyl)pyrazin-2-yl)cyclopropanecarboxamide]
7.4	CN(C(=O)CNc1cc(-c2cnc(NC(=O)C3CC3)cn2)ccc1C#N)C1CC1 [Example 25, N-(5-(4-cyano-3-((2-(cyclopropyl(methyl)amino)-2-oxoethyl)amino)phenyl)pyrazin-2-yl)cyclopropanecarboxamide]
8.5	CC[C@@H](Nc1cc(-c2cnc(NC(=O)C3CC3)cn2)ccc1C#N)C(=O)N(C)C [Example 26, (R)-N-(5-(4-cyano-3-((1-(dimethylamino)-1-oxobutan-2-yl)amino)phenyl)pyrazin-2-yl)cyclopropanecarboxamide]
6.9	N#Cc1ccc(-c2cnc(NC(=O)C3CC3)cn2)cc1NCC(=O)N1CCC(O)C1 (centres unmarked) [Example 27, N-(5-(4-cyano-3-((2-(3-hydroxypyrrolidin-1-yl)-2-oxoethyl)amino)phenyl)pyrazin-2-yl)cyclopropanecarboxamide]
6.9	CN(C)C(=O)C(CCO)Nc1cc(-c2cnc(NC(=O)C3CC3)cn2)ccc1C#N (centres unmarked) [Example 28, N-(5-(4-cyano-3-((1-(dimethylamino)-4-hydroxy-1-oxobutan-2-yl)amino)phenyl)pyrazin-2-yl)cyclopropanecarboxamide]
7.8	CCC(Nc1cc(-c2cnc(NC(=O)C3CC3)cn2)ccc1C#N)C(=O)N(C)CCO (centres unmarked) [Example 29, N-(5-(4-cyano-3-((1-((2-hydroxyethyl)(methyl)amino)-1-oxobutan-2-yl)amino)phenyl)pyrazin-2-yl)cyclopropanecarboxamide]
5.8	C[C@@H](Nc1cc(-c2cnc(NC(=O)C3CC3)cn2)cnc1C#N)C(=O)N(C)C [Example 30, (R)-N-(5-(6-cyano-5-((1-(dimethylamino)-1-oxopropan-2-yl)amino)pyridin-3-yl)pyrazin-2-yl)cyclopropanecarboxamide]

— patent US9994547B2, “Heteroarylamide inhibitors of TBK1” (Takeda Pharmaceutical Company Limited, priority 2014, dated 2018)
